According to patent US20260132132A1, “3A,4,5,6-TETRAHYDRO-1 H-PYRAZOLO[3,4-C]PYRIDIN-7(7AH)-ONE DERIVATIVES AS FACTOR XIIA INHIBITORS” (KALVISTA PHARMACEUTICALS LIMITED, priority 2022, published 2026):

Key:
FXa = FXa (Homo sapiens, UniProt P00742); assay: Related protease inhibition: FXa, fluorogenic substrate; format: biochemical; conditions: fluorogenic substrate at Km, 25° C.; H1-H3 = % activity at 40 μM
Protocol: Human serine protease enzyme Plasma Kallikrein, KLK1, FXa, Plasmin, Thrombin and Trypsin were assayed for enzymatic activity using an appropriate fluorogenic substrate at Km concentration, FXIa at fixed substrate concentration of 100 μM and various concentrations of the test compound.

[1] = target: T1, Human Factor XIIa (hFXIIa) (Homo sapiens, UniProt P00748); assay: Determination of Human Factor XIIa (hFXIIa) inhibition, fluorogenic substrate IC50 assay; format: biochemical; conditions: fluorogenic substrate H-DPro-Phe-Arg-AFC at Km, 25° C., read-out: Human FXIIa IC50
T1 construct: purchased Enzyme Research Laboratories
T1 sequence (P00748 373-615 limits assumed): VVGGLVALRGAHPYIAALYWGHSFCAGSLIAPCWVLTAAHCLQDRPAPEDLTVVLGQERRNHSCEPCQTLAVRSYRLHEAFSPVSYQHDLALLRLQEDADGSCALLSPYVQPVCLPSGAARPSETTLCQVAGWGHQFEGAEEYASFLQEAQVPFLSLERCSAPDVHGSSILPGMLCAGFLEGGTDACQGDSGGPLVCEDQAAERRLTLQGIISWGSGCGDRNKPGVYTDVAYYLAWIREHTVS
T1 sequence (P00748 20-372 partner limits assumed): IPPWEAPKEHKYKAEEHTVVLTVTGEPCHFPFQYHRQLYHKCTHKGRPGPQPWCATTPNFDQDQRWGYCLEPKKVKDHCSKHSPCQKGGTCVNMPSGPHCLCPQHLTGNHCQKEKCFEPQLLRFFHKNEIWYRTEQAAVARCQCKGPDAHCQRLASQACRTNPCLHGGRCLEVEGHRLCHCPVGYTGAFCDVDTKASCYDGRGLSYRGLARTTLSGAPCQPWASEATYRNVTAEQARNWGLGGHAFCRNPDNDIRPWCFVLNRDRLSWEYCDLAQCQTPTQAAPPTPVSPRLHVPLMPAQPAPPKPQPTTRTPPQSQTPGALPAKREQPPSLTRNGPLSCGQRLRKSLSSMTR
Protocol: Determination of Human Factor XIIa (hFXIIa) inhibition
The Km for the cleavage of the substrate by hFXIIa was determined by standard transformation of the Michaelis-Menten equation, with subsequent inhibition assays performed at substrate Km concentration.

Chain of FXa (P00742 235-488 limits assumed): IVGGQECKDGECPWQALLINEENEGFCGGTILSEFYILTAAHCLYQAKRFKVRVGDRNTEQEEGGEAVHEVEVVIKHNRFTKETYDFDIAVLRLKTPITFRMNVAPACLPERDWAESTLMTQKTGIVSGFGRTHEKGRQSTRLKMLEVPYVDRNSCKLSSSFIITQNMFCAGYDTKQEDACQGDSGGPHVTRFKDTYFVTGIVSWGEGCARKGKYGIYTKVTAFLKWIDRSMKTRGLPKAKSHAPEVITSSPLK
Chain of FXa (P00742 41-179 partner limits assumed): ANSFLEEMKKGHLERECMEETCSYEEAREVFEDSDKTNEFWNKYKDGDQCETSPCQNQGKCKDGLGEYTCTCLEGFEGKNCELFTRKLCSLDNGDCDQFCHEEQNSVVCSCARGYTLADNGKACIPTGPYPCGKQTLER

Row | Structure (SMILES) | IC50 (FXa) [µM] | IC50 [1] [µM]
1 | CC(C)N1CCc2ccc(N3CCc4c(C(=O)NCc5ccccc5)nn(-c5cccc(Cl)c5)c4C3=O)cc2C1 [Example 1022, N-benzyl-1-(3-chlorophenyl)-6-(2-isopropyl-1,2,3,4-tetrahydroisoquinolin-7-yl)-7-oxo-4,5,6,7-tetrahydro-1H-pyrazolo[3,4-c]pyridine-3-carboxamide] | 3 to 10 | 0.01 to 0.1
2 | O=C(NCC1CC1)c1nn(-c2cccc(Cl)c2)c2c1CCN(c1ccc3c(c1)CNCC3)C2=O [Example 1074, 1-(3-chlorophenyl)-N-(cyclopropylmethyl)-7-oxo-6-(1,2,3,4-tetrahydroisoquinolin-7-yl)-4,5,6,7-tetrahydro-1H-pyrazolo[3,4-c]pyridine-3-carboxamide] | 10 to 40 | 1 to 3
3 | Cc1nc2c(C(=O)O)nn(-c3cccc(Cl)c3)c2c(=O)n1-c1ccc2c(c1)C(=O)N(CCO)CC2 [Example 3018, 1-(3-chlorophenyl)-6-(2-(2-hydroxyethyl)-1-oxo-1,2,3,4-tetrahydroisoquinolin-7-yl)-5-methyl-7-oxo-6,7-dihydro-1H-pyrazolo[4,3-d]pyrimidine-3-carboxylic acid] | 10 to 40 | 1 to 3
4 | Cc1ccncc1CNC(=O)c1nn(-c2cccc(Cl)c2)c2c(=O)n(-c3ccc4c(c3)CN(CCO)CC4)c(C)nc12 [Example 3011, 1-(3-chlorophenyl)-6-(2-(2-hydroxyethyl)-1,2,3,4-tetrahydroisoquinolin-7-yl)-5-methyl-N-((4-methylpyridin-3-yl)methyl)-7-oxo-6,7-dihydro-1H-pyrazolo[4,3-d]pyrimidine-3-carboxamide] | 10 to 40 | 0.01 to 0.1
5 | CCNC(=O)c1nn(-c2cc(Cl)ccc2C)c2c1CCN(c1ccc3c(c1)C(=O)N(C)CC3)C2=O [Example 2029, 1-(5-chloro-2-methylphenyl)-N-ethyl-6-(2-methyl-1-oxo-1,2,3,4-tetrahydroisoquinolin-7-yl)-7-oxo-4,5,6,7-tetrahydro-1H-pyrazolo[3,4-c]pyridine-3-carboxamide] | > 40 | 10 to 40
6 | CN1CCc2ccc(N3CCc4c(C(=O)NCC5CC5)nn(-c5cccc(Cl)n5)c4C3=O)cc2C1=O [Example 2020, 1-(6-Chloropyridin-2-yl)-N-(cyclopropylmethyl)-6-(2-methyl-1-oxo-1,2,3,4-tetrahydroisoquinolin-7-yl)-7-oxo-4,5,6,7-tetrahydro-1H-pyrazolo[3,4-c]pyridine-3-carboxamide] | > 40 | 0.1 to 0.3
7 | Cc1cc(CNC(=O)c2nn(-c3cccc(Cl)c3)c3c2CCN(c2cc4c(nn2)CCN(CCO)C4)C3=O)nn1C [Example 1227, 1-(3-chlorophenyl)-N-((1,5-dimethyl-1H-pyrazol-3-yl)methyl)-6-(6-(2-hydroxyethyl)-5,6,7,8-tetrahydropyrido[4,3-c]pyridazin-3-yl)-7-oxo-4,5,6,7-tetrahydro-1H-pyrazolo[3,4-c]pyridine-3-carboxamide] | 10 to 40 | 0.1 to 0.3
8 | Cc1cn(C)nc1CNC(=O)c1nn(-c2cccc(Cl)c2)c2c1CCN(c1ccc3c(c1)CN(CCO)CC3)C2=O [Example 1157, 1-(3-chlorophenyl)-N-((1,4-dimethyl-1H-pyrazol-3-yl)methyl)-6-(2-(2-hydroxyethyl)-1,2,3,4-tetrahydroisoquinolin-7-yl)-7-oxo-4,5,6,7-tetrahydro-1H-pyrazolo[3,4-c]pyridine-3-carboxamide] | 10 to 40 | 0.01 to 0.1
9 | Cc1cc(CNC(=O)c2nn(-c3cccc(Cl)c3F)c3c2CCN(c2ccc4c(c2)C(=O)N(C)CC4)C3=O)n[nH]1 [Example 2040, 1-(3-chloro-2-fluorophenyl)-6-(2-methyl-1-oxo-1,2,3,4-tetrahydroisoquinolin-7-yl)-N-((5-methyl-1H-pyrazol-3-yl)methyl)-7-oxo-4,5,6,7-tetrahydro-1H-pyrazolo[3,4-c]pyridine-3-carboxamide] | 10 to 40 | 0.01 to 0.1
10 | Cc1cc(CN)cc(-n2nc(C(=O)O)c3c2C(=O)N(c2ccc4c(c2)C(=O)N(C)CC4)CC3)c1 [Example 2025, 1-(3-(aminomethyl)-5-methylphenyl)-6-(2-methyl-1-oxo-1,2,3,4-tetrahydroisoquinolin-7-yl)-7-oxo-4,5,6,7-tetrahydro-1H-pyrazolo[3,4-c]pyridine-3-carboxylic acid] | 10 to 40 | 0.01 to 0.1
11 | CCNC(=O)c1nn(-c2cccc(Cl)c2)c2c1CCN(c1ccc3c(c1)C(=O)N(CCO)[C@@H](C)CO3)C2=O [Example 1381, (S)-1-(3-chlorophenyl)-N-ethyl-6-(4-(2-hydroxyethyl)-3-methyl-5-oxo-2,3,4,5-tetrahydrobenzo[f][1,4]oxazepin-7-yl)-7-oxo-4,5,6,7-tetrahydro-1H-pyrazolo[3,4-c]pyridine-3-carboxamide] | > 40 | 1 to 3
12 | Cc1cc(CNC(=O)c2nn(-c3cccc(Cl)c3)c3c2CCN(c2ccc4c(c2)C(=O)N(CCO)[C@H](C)CO4)C3=O)nn1C [Example 1329, (R)-1-(3-chlorophenyl)-N-((1,5-dimethyl-1H-pyrazol-3-yl)methyl)-6-(4-(2-hydroxyethyl)-3-methyl-5-oxo-2,3,4,5-tetrahydrobenzo[f][1,4]oxazepin-7-yl)-7-oxo-4,5,6,7-tetrahydro-1H-pyrazolo[3,4-c]pyridine-3-carboxamide] | > 4 | 0.3 to 1

Second part, the compound after the results:

Row | IC50 (FXa) [µM] | IC50 [1] [µM] | Structure (SMILES)
13 | 10 to 40 | 0.01 to 0.1 | Cc1cc(CNC(=O)c2nn(-c3cccc(Cl)c3)c3c2CCN(c2ccc4c(c2)C(=O)N(CCCO)CC4)C3=O)nn1C [Example 1275, 1-(3-chlorophenyl)-N-((1,5-dimethyl-1H-pyrazol-3-yl)methyl)-6-(2-(3-hydroxypropyl)-1-oxo-1,2,3,4-tetrahydroisoquinolin-7-yl)-7-oxo-4,5,6,7-tetrahydro-1H-pyrazolo[3,4-c]pyridine-3-carboxamide]
14 | 10 to 40 | 0.3 to 1 | Cc1cc(CNC(=O)c2nn(-c3cccc(Cl)c3)c3c2CCN(c2ccc4c(c2)C(=O)N(C)CC4)C3=O)n(C)n1 [Example 1264, 1-(3-chlorophenyl)-N-((1,3-dimethyl-1H-pyrazol-5-yl)methyl)-6-(2-methyl-1-oxo-1,2,3,4-tetrahydroisoquinolin-7-yl)-7-oxo-4,5,6,7-tetrahydro-1H-pyrazolo[3,4-c]pyridine-3-carboxamide]
15 | > 40 | 0.3 to 1 | CN1CCc2ccc(N3CCc4c(C(=O)NCC5(CO)CC5)nn(-c5cccc(Cl)c5)c4C3=O)cc2C1=O [Example 1250, 1-(3-chlorophenyl)-N-((1-(hydroxymethyl)cyclopropyl)methyl)-6-(2-methyl-1-oxo-1,2,3,4-tetrahydroisoquinolin-7-yl)-7-oxo-4,5,6,7-tetrahydro-1H-pyrazolo[3,4-c]pyridine-3-carboxamide]
16 | > 40 | 0.3 to 1 | CN1CCc2ccc(N3CCc4c(C(=O)NCCF)nn(-c5cccc(Cl)c5)c4C3=O)cc2C1=O [Example 1384, 1-(3-chlorophenyl)-N-(2-fluoroethyl)-6-(2-methyl-1-oxo-1,2,3,4-tetrahydroisoquinolin-7-yl)-7-oxo-4,5,6,7-tetrahydro-1H-pyrazolo[3,4-c]pyridine-3-carboxamide]
17 | > 40 | 0.1 to 0.3 | CCCN1CCc2ccc(N3CCc4c(C(=O)NCc5cnccc5C)nn(-c5cccc(Cl)c5)c4C3=O)cc2C1=O [Example 1209, 1-(3-chlorophenyl)-N-((4-methylpyridin-3-yl)methyl)-7-oxo-6-(1-oxo-2-propyl-1,2,3,4-tetrahydroisoquinolin-7-yl)-4,5,6,7-tetrahydro-1H-pyrazolo[3,4-c]pyridine-3-carboxamide]
18 | 10 to 40 | 0.1 to 0.3 | COCCN1CCc2ccc(N3CCc4c(C(=O)NCc5cc(C)n(C)n5)nn(-c5cccc(Cl)c5)c4C3=O)cc2C1=O [Example 1262, 1-(3-chlorophenyl)-N-((1,5-dimethyl-1H-pyrazol-3-yl)methyl)-6-(2-(2-methoxyethyl)-1-oxo-1,2,3,4-tetrahydroisoquinolin-7-yl)-7-oxo-4,5,6,7-tetrahydro-1H-pyrazolo[3,4-c]pyridine-3-carboxamide]
19 | 10 to 40 | 0.01 to 0.1 | Cc1cn(C)nc1CNC(=O)c1nn(-c2cccc(Cl)c2)c2c1CCN(c1ccc3c(c1)C(=O)N(CCO)CC3)C2=O [Example 1217, 1-(3-Chlorophenyl)-N-[(1,4-dimethylpyrazol-3-yl)methyl]-6-[2-(2-hydroxyethyl)-1-oxo-3,4-dihydroisoquinolin-7-yl]-7-oxo-4,5-dihydropyrazolo[3,4-c]pyridine-3-carboxamide]
20 | > 40 | 0.3 to 1 | CN1CCc2ccc(N3CCc4c(C(=O)NCCO)nn(-c5cccc(Cl)c5)c4C3=O)cc2C1=O [Example 1340, 1-(3-chlorophenyl)-N-(2-hydroxyethyl)-6-(2-methyl-1-oxo-1,2,3,4-tetrahydroisoquinolin-7-yl)-7-oxo-4,5,6,7-tetrahydro-1H-pyrazolo[3,4-c]pyridine-3-carboxamide]
